Laboratory results taken from ChEMBL document CHEMBL6074685, “Design, synthesis and biological evaluation of novel diaryl-substituted fused nitrogen heterocycles as tubulin polymerization inhibitors to overcome multidrug resistance in vitro and in vivo” (Eur J Med Chem, 2025).
Activity calls are given as the source filed them. No cut-off for these calls is given here.

Experiments:
A549/TR [1] = test: Antiproliferative activity against human A549/T cell assessed as cell growth inhibition incubated for 48 hrs by MTT assay; assay type: functional, cell-based
A549 = test: Antiproliferative activity against human A549 cells assessed as cell growth inhibition incubated for 48 hrs by MTT assay; conditions: A549, 48 h
[2] = Resistance index, ratio of IC50 for human A549/T cells to IC50 for human A549 cells; assay type: functional
A549/TR [3] = test: Antiproliferative activity against human A549/T cell assessed as cell growth inhibition at 80 nM incubated for 48 hrs by MTT assay; assay type: functional, cell-based
A549/TR [4] = test: Antiproliferative activity against human A549/T cell assessed as cell growth inhibition in presence of verapamil incubated for 48 hrs by MTT assay; assay type: functional, cell-based
[5] = Metabolic stability in human liver microsome assessed as half life measured upto 50 mins by LC-MS/MS analysis; assay type: ADME; conditions: liver microsomes
[6] = Metabolic stability in human liver microsome assessed as intrinsic clearance measured upto 50 mins by LC-MS/MS analysis; assay type: ADME; conditions: liver microsomes, read-out: CLH
[7] = Metabolic stability in mouse liver microsome assessed as half life measured upto 50 mins by LC-MS/MS analysis; assay type: ADME; conditions: liver microsomes
[8] = Metabolic stability in mouse liver microsome assessed as intrinsic clearance measured upto 50 mins by LC-MS/MS analysis; assay type: ADME; conditions: liver microsomes, read-out: CLH

| Compound | IC50 (A549/TR [1]) [nM] | IC50 (A549) [nM] | Ratio IC50 [2] | other results |
| --- | --- | --- | --- | --- |
| COc1ccc(-c2cc(-c3cc(OC)c(OC)c(OC)c3)c3[nH]c(=O)[nH]c3c2)cc1O | 470 | 290 | 1.62 |  |
| COc1cc(-c2cc(-c3ccc(Cl)c(N)c3)cc3[nH]cnc23)cc(OC)c1OC | 910 | 410 | 2.21 |  |
| COc1ccc(CCN(C)CCCC(C#N)(c2ccc(OC)c(OC)c2)C(C)C)cc1OC (stereo unspecified) |  |  |  | Activity (A549/TR [1]): inactive; Activity (A549/TR [3]): Active |
| COc1cc(-c2cc(C)cc3[nH]cnc23)cc(OC)c1OC | > 50000 | > 50000 |  |  |
| COc1ccc(-c2nc3c(c(Nc4cc(OC)c(OC)c(OC)c4)n2)CCCC3)cc1F | 11700 | 10400 | 1.12 |  |
| COc1ccc(-c2cncc3[nH]c(=O)n(-c4cc(OC)c(OC)c(OC)c4)c23)cc1F | > 50000 |  |  |  |
| COc1ccc(-c2cc(Oc3cc(OC)c(OC)c(OC)c3)c3ncn(C)c3c2)cc1F | 410 | 200 | 2.05 |  |
| COc1ccc(-c2nc(Nc3cc(OC)c(OC)c(OC)c3)c3ccccc3n2)cc1F | > 50000 | 10300 | >4.84 |  |
| COc1cc(-c2cc(-c3ccc(C)c(F)c3)cc3[nH]cnc23)cc(OC)c1OC | 380 | 110 | 3.45 |  |
| COc1ccc(-c2nc(Nc3cc(OC)c(OC)c(OC)c3)c3cccnc3n2)cc1F | > 50000 | 5360 | >9.43 |  |
| CCC1=C[C@@H]2CN(C1)Cc1c([nH]c3ccccc13)[C@@](C(=O)OC)(c1cc3c(cc1OC)N(C)[C@H]1[C@@](O)(C(=O)OC)[C@H](OC(C)=O)[C@]4(CC)C=CCN5CC[C@]31[C@@H]54)C2 |  |  |  | Activity (A549/TR [4]): Active |
| COc1ccc(-c2cc3[nH]c(=O)[nH]c3c(Oc3cc(OC)c(OC)c(OC)c3)n2)cc1F | 22100 |  |  |  |
| COc1ccc(-c2nc(Nc3cc(OC)c(OC)c(OC)c3)c3ncn(C)c3n2)cc1F | 3910 | 1210 | 3.23 |  |
| COc1ccc(-c2nc3c(c(Nc4cc(OC)c(OC)c(OC)c4)n2)SCC3)cc1F | > 50000 | > 50000 |  |  |
| CCOc1ccc(-c2cc(-c3cc(OC)c(OC)c(OC)c3)c3nc[nH]c3c2)cc1 | 2950 | 1030 | 2.86 |  |
| COc1cc(-c2cc(-c3ccc(C)c(O)c3)cc3[nH]cnc23)cc(OC)c1OC | 890 | 190 | 4.68 |  |
| COc1ccc(-c2cncc3[nH]c(=O)n(-c4cc(OC)c(OC)c(OC)c4)c23)cc1O | > 50000 |  |  |  |
| COc1ccc(-c2nc3cnccc3n2-c2cc(OC)c(OC)c(OC)c2)cc1O | > 50000 |  |  |  |
| COc1ccc(-c2cc(-c3ccccc3OC)c3nc[nH]c3c2)cc1N | 350 | 140 | 2.5 |  |
| COc1ccc(Nc2nc(Nc3cc(OC)c(OC)c(OC)c3)c3ccccc3n2)cc1F | 11000 | 2770 | 3.96 |  |
| COc1cc(-c2cccc3[nH]cnc23)cc(OC)c1OC | > 50000 | > 50000 |  |  |
| COc1cc2c(c(OC)c1OC)-c1ccc(OC)c(=O)cc1[C@@H](NC(C)=O)CC2 [COLCHICINE] | 280 | 22 | 12 | Activity (A549/TR [4]): Active |
| O=C(c1ccc(F)cc1)C1CCN(CCn2c(=O)[nH]c3ccccc3c2=O)CC1 [KETANSERIN] |  |  |  | half-life [5]: 37 min; CLint scaled [6]: 47 mL/min/kg; half-life [7]: 13 min; CLint scaled [8]: 419 mL/min/kg |
| COc1ccc(-c2cc(-c3cc(OC)c(OC)c(OC)c3)c3nc[nH]c3c2)cc1N | 160 | 33 | 4.84 |  |
| COc1ccc(-c2nc3c(c(Nc4cc(OC)c(OC)c(OC)c4)n2)CCC3)cc1F | 35500 | 23000 | 1.54 |  |
| COc1ccc(-c2nc(N(C)c3cc(OC)c(OC)c(OC)c3)c3ncn(C)c3n2)cc1F | 16600 | 9910 | 1.67 |  |
